Assay: Solubility by the shake-flask method
[1] = Table 2: Solubility test of Fe28 clusters (acid linkers; Fe28+Tartaric acid with Ba, Ca, Mg counterions), conditions not given separately
[2] = shake-flask method, room temperature (25 °C, pH = 5.7 in 0.3 M of Na2SO4), Table 1, influence of the cation

Procedure: Solubility was determined by the shake-flask method (table 1) at room temperature (25 °C, pH = 5.7 in 0.3 M of Na2SO4).

Q: For “Ba10[Fe28(µ3-O)8(tart)16(OAc)24] ×H2O [Ba10Fe28]”, which Solubility [1] is on record?
A: Its Solubility is 84 mM.

Q: Which Solubility [2] does the source give for “Li2K18[Fe28(µ3-O)8(tart)16(OAc)24] ×H2O [Li2K18Fe28]” here?
A: The Solubility was 48 mM.

Q: For “K2Li18[Fe28(µ3-O)8(tart)16(OAc)24] ×H2O [Cluster K2Li28Fe28]”, which Solubility [2] is on record?
A: The Solubility was 88 mM.

Q: For “Li2Na18[Fe28(µ3-O)8(tart)16(OAc)24] ×H2O [Li2Na18Fe28]”, which Solubility [2] is on record?
A: Its Solubility is 83 mM.

Q: Which Solubility [1] does the source give for “Ca10[Fe28(µ3-O)8(tart)16(OAc)24] ×H2O [Ca10Fe28]” here?
A: The Solubility was 2 mM.

Q: With “Na20[Fe28(µ3-O)8(tart)16(OAc)24] ×H2O [Na20Fe28]” as the substance, how does the Solubility [2] read?
A: The Solubility was 70 mM.

Q: For “K20[Fe28(µ3-O)8(tart)16(OAc)24] ×H2O [Cluster K20Fe28]”, which Solubility [2] is on record?
A: Its Solubility is 50 mM.

Q: Which Solubility [1] does the source give for “Mq10[Fe28(µ3-O)8(tart)16(OAc)24] ×H2O [Mg10Fe28]” here?
A: The Solubility was 1 mM.

— patent EP4545542A1, “TRANSITION METAL CLUSTER COMPOUNDS FOR ELECTROCHEMICAL APPLICATIONS” (Litricity GmbH, priority 2023, dated 2025)
